These results are taken from US9309236B2, “PI-kinase inhibitors with broad spectrum anti-infective activity” (The Board of Trustees of the Leland Stanford Junior …, priority 2011, dated 2016).

In one data set the test system is HCV genotype 2a. Description: microbe, parasite or virus in culture. Type of data set: cell-based. Conditions: HCV genotype 2a in Huh7.5 cells, luciferase reporter assay; read-out: 2a EC50. The method, then:
Anti-HCV assays are performed as described by Cho et al. “Identification of a class of HCV inhibitors directed against the nonstructural protein NS4B.” Sci. Transl.
(§1) The compounds of Table 1 were prepared according to the methods described above.
Background: In a reporter assay the amount or activity of a reporter protein is the signal.
Usually EC50 stands for the concentration giving half of the maximal effect. As for `COc1ccc(-c2sc(NC(=O)CC3CCCCC3)nc2C)cc1S(=O)(=O)Nc1cccc(O)c1` [AB4114], the half-maximal effective concentration (EC50) lay within 0.2 to 1 µM.

Staying with this data set, now noted: Hepatitis C virus, Huh7.5, HCV genotype 2a in Huh7.5 cells, luciferase reporter assay; read-out: 2a EC50.
As for `COc1ccc(-c2sc(NC(=O)CC3CCCCC3)nc2C)cc1S(=O)(=O)Nc1ccc(O)cc1` [AB3680], the EC50 is greater than 1 µM. Consider `COc1ccc(-c2sc(NC(=O)CC3CCCCC3)nc2C)cc1S(=O)(=O)Nc1cccc(O)c1` [AB3826], for which the concentration giving a half-maximal response (EC50) is less than 0.2 µM. Still for that read-out and setting: for `COc1ccc(-c2sc(NC(=O)CCC3CCCC3)nc2C)cc1S(=O)(=O)Nc1cccc(O)c1` [AB3837] the value was 0.2 to 1 µM. With `COc1ccc(-c2sc(NC(=O)C3CCCC3)nc2C)cc1S(=O)(=O)Nc1cnc(OC)c(C)c1` [AB3864], the EC50 lay in the range of 0.2 to 1 µM.

Take `COc1ccc(-c2sc(NC3CCCCC3)nc2C)cc1S(=O)(=O)Nc1cnc(Cl)c(C)c1` [AB3946]: the EC50 lay within 0.2 to 1 µM.

Turning to `COc1ccc(-c2sc(NC3CCCCC3)nc2C)cc1S(=O)(=O)Nc1cnc(OC)c(C)c1` [AB3948], the EC50 lay within 0.2 to 1 µM. Take `COc1cc(C)c(NS(=O)(=O)c2cc(-c3sc(NC4CCCCC4)nc3C)ccc2OC)cn1` [AB3950]: the half-maximal effective concentration (EC50) was less than 0.2 µM. As for `COc1ccc(NS(=O)(=O)c2cc(-c3sc(NC4CCCCC4)nc3C)ccc2OC)cn1` [AB3957], the concentration giving a half-maximal response (EC50) was 0.2 to 1 µM. Turning to `COc1ccc(-c2sc(NC(C)C)nc2C)cc1S(=O)(=O)Nc1cnc(Cl)c(C)c1` [AB3977], the half-maximal effective concentration (EC50) lay within 0.2 to 1 µM. With `COc1cc(C)c(NS(=O)(=O)c2cc(-c3sc(NC(C)C)nc3C)ccc2OC)cn1` [AB3979], the EC50 lay in the range of 0.2 to 1 µM. For `COc1ccc(-c2sc(NC3CCCCC3)nc2C)cc1S(=O)(=O)Nc1ccc(Cl)nc1` [AB4024], the EC50 is 0.2 to 1 µM. On to `COc1ccccc1NS(=O)(=O)c1cc(-c2sc(NC3CCCCC3)nc2C)ccc1OC` [AB4025], for which the concentration for a half-maximal effect (EC50) lay in the range of 0.2 to 1 µM. Consider `COc1ccc(-c2sc(NC(=O)C3CCCC3)nc2C)cc1S(=O)(=O)Nc1ccc(Cl)nc1` [AB4050], for which the EC50 is 0.2 to 1 µM. As to `COc1ccccc1NS(=O)(=O)c1cc(-c2sc(NC(=O)C3CCCC3)nc2C)ccc1OC` [AB4051], the 50% effective concentration (EC50) lay in the range of 0.2 to 1 µM. Same read-out and setting: the figure for `COc1ccc(-c2sc(NC3CCCCC3)nc2C)cc1S(=O)(=O)Nc1cnc(F)cc1C` [AB4052] is less than 0.2 µM; for `COc1ccc(NS(=O)(=O)c2cc(-c3sc(NC4CCCCC4)nc3C)ccc2OC)c(OC)n1` [AB4053] it is 0.2 to 1 µM; for `COc1ccc(NS(=O)(=O)c2cc(-c3sc(NC(=O)C4CCCC4)nc3C)ccc2OC)c(OC)n1` [AB4054] it is 0.2 to 1 µM.

Take `COc1ccc(-c2sc(NC3CCCCC3)nc2C)cc1S(=O)(=O)Nc1ccc(C)cc1` [AB4106]: the EC50 lay within 0.2 to 1 µM. On to `COc1cc(C)c(NS(=O)(=O)c2cc(-c3sc(NC(=O)CC4CCCC4)nc3C)ccc2OC)cn1` [AB4107], for which the half-maximal effective concentration (EC50) is 0.2 to 1 µM. On to `COc1ccc(-c2sc(NC(=O)CC3CCCC3)nc2C)cc1S(=O)(=O)Nc1cnc(Cl)c(C)c1` [AB4108], for which the 50% effective concentration (EC50) fell in the range of 0.2 to 1 µM. On to `COc1ccc(-c2sc(NC(=O)CC3CCCC3)nc2C)cc1S(=O)(=O)Nc1cccc(O)c1` [AB4109], for which the 50% effective concentration (EC50) lay in the range of 0.2 to 1 µM.

On to `COc1ccc(NS(=O)(=O)c2cc(-c3sc(NC(=O)CC4CCCC4)nc3C)ccc2OC)c(C)c1` [AB4110], for which the EC50 lay in the range of 0.2 to 1 µM. As for `COc1ccc(-c2sc(NC(=O)CC3CCCC3)nc2C)cc1S(=O)(=O)Nc1cnc(F)cc1C` [AB4111], the EC50 lay within 0.2 to 1 µM.

On to `COc1cc(C)c(NS(=O)(=O)c2cc(-c3sc(NC(=O)CC4CCCCC4)nc3C)ccc2OC)cn1` [AB4112], for which the half-maximal effective concentration (EC50) was in the range of 0.2 to 1 µM.

As for `COc1ccc(-c2sc(NC(=O)CC3CCCCC3)nc2C)cc1S(=O)(=O)Nc1cnc(Cl)c(C)c1` [AB4113], the EC50 lay within 0.2 to 1 µM.

Take `COc1ccc(NS(=O)(=O)c2cc(-c3sc(NC(=O)CC4CCCCC4)nc3C)ccc2OC)c(C)c1` [AB4115]: the EC50 lay within 0.2 to 1 µM.

Turning to `COc1ccc(-c2sc(NC(=O)CC3CCCCC3)nc2C)cc1S(=O)(=O)Nc1cnc(F)cc1C` [AB4116], the concentration for a half-maximal effect (EC50) lay within 0.2 to 1 µM. As to `COc1ccc(-c2sc(NC3CCCCCC3)nc2C)cc1S(=O)(=O)Nc1cccc(O)c1` [AB4139], the EC50 lay in the range of 0.2 to 1 µM. The same measure, in the same setting: for `COc1ccc(NS(=O)(=O)c2cc(-c3sc(NC4CCCCCC4)nc3C)ccc2OC)c(C)c1` [AB4140] the value was 0.2 to 1 µM; for `COc1ccc(-c2sc(NC3CCCCCC3)nc2C)cc1S(=O)(=O)Nc1cnc(Cl)c(C)c1` [AB4141], 0.2 to 1 µM; for `COc1ccc(-c2sc(NC3CCCCCC3)nc2C)cc1S(=O)(=O)Nc1ccc(Cl)cc1F` [AB4145], 0.2 to 1 µM. Same read-out and setting: the figure for `COc1ccc(-c2sc(NC(=O)CC3CCCC3)nc2C)cc1S(=O)(=O)Nc1ccc(Cl)cc1F` [AB4171] is 0.2 to 1 µM. Consider `COc1ccc(-c2sc(NC3CCCCC3)nc2C)cc1S(=O)(=O)NC1CCNCC1` [AB4173], for which the EC50 was greater than 1 µM. Turning to `COc1ccc(-c2sc(NC3CCCCC3)nc2C)cc1S(=O)(=O)NC1CCCNC1` (centres unmarked) [AB4174], the EC50 was greater than 1 µM. On to `COc1ccc(-c2sc(NC(=O)C3CCCC3)nc2C)cc1S(=O)(=O)NC1CCNCC1` [AB4178], for which the EC50 was greater than 1 µM.

On to `COc1ccc(-c2sc(NC(=O)C3CCCC3)nc2C)cc1S(=O)(=O)NC1CCCNC1` (centres unmarked) [AB4179], for which the EC50 was greater than 1 µM.

With `COc1ccc(-c2sc(NC(=O)C3CCCC3)nc2C)cc1S(=O)(=O)Nc1ccc(Cl)cc1` [AB4185], the half-maximal effective concentration (EC50) was greater than 1 µM. `COc1ccc(-c2sc(NCC3CCCCC3)nc2C)cc1S(=O)(=O)Nc1cnc(F)cc1C` [AB4225]: the concentration for a half-maximal effect (EC50) lay within 0.2 to 1 µM.

Consider `COc1ccc(-c2sc(NCC3CCCCC3)nc2C)cc1S(=O)(=O)Nc1cnc(Cl)c(C)c1` [AB4226], for which the EC50 fell in the range of 0.2 to 1 µM.

Consider `COc1ccc(-c2sc(NCC3CCCCC3)nc2C)cc1S(=O)(=O)NC1CCCNC1` (centres unmarked) [AB4227], for which the EC50 was greater than 1 µM. With `COc1ccc(-c2sc(NCC3CCCCC3)nc2C)cc1S(=O)(=O)NCC1CCNCC1` [AB4228], the half-maximal effective concentration (EC50) was greater than 1 µM. Regarding `COc1ccc(-c2sc(NCC3CCCCC3)nc2C)cc1S(=O)(=O)Nc1cnc(Cl)c(F)c1` [AB4229], the EC50 is greater than 1 µM. On to `COc1ccc(-c2sc(NCC3CCCCC3)nc2C)cc1S(=O)(=O)NC1CCNCC1` [AB4237], for which the concentration giving a half-maximal response (EC50) is greater than 1 µM. Take `COc1ccc(-c2sc(CC3CCCCC3)nc2C)cc1S(=O)(=O)Nc1cnc(Cl)c(C)c1` [AB4239]: the 50% effective concentration (EC50) lay in the range of 0.2 to 1 µM. The same measure, in the same setting: the figure for `COc1ccc(-c2sc(CC3CCCCC3)nc2C)cc1S(=O)(=O)NC1CCNCC1` [AB4240] is greater than 1 µM; for `COc1ccc(-c2sc(CC3CCCCC3)nc2C)cc1S(=O)(=O)NC1CCCNC1` (centres unmarked) [AB4241] it is greater than 1 µM; for `COc1ccc(-c2sc(CC3CCCCC3)nc2C)cc1S(=O)(=O)Nc1ccc(Cl)c(F)c1` [AB4242] it is 0.2 to 1 µM.

For `COc1ccc(-c2sc(CC3CCCCC3)nc2C)cc1S(=O)(=O)Nc1ccc(Cl)c(C)c1` [AB4243], the half-maximal effective concentration (EC50) fell in the range of 0.2 to 1 µM.

Tested on in the next data set: not listed separately
The data set can be described thus: Cell toxicity (CC50), Table 3. Type of data set: cell-based. The conditions noted are these: human, Huh7.5 cells. The method, then:
as §1
The CC50 is the concentration giving 50% cytotoxicity. In the case of `COc1ccc(-c2sc(NC(=O)CC3CCCCC3)nc2C)cc1S(=O)(=O)Nc1ccc(O)cc1` [AB3680], the half-maximal cytotoxic concentration (CC50) was determined as 54 µM.

`COc1ccc(-c2sc(NC(=O)CCC3CCCC3)nc2C)cc1S(=O)(=O)Nc1cccc(O)c1` [AB3837] showed a cytotoxic concentration (CC50) of 22 µM. Same read-out and setting: for `COc1cc(C)c(NS(=O)(=O)c2cc(-c3sc(NC4CCCCC4)nc3C)ccc2OC)cn1` [AB3950] the value was 12 µM; for `COc1ccc(NS(=O)(=O)c2cc(-c3sc(NC4CCCCC4)nc3C)ccc2OC)cn1` [AB3957], 9 µM. Turning to `COc1ccccc1NS(=O)(=O)c1cc(-c2sc(NC3CCCCC3)nc2C)ccc1OC` [AB4025], the cytotoxic concentration (CC50) was found to be 13 µM. Same read-out and setting: for `COc1ccc(-c2sc(NC3CCCCC3)nc2C)cc1S(=O)(=O)Nc1ccc(C)cc1` [AB4106] the value was 58.5 µM; for `COc1ccc(-c2sc(NC(=O)CC3CCCC3)nc2C)cc1S(=O)(=O)Nc1cccc(O)c1` [AB4109], 20.7 µM.
